Assay results taken from US20260364214A1, “MULTIVALENT FIBROBLAST ACTIVATION PROTEIN LIGANDS FOR TARGETED DELIVERY APPLICATIONS” (Philochem AG, priority 2022, published 2026).

Tested on: SK-RC-52.hFAP tumors
Experiment: Quantitative biodistribution in SK-RC-52.hFAP tumor bearing mice
Format: in vivo, mouse (female athymic Balb/c AnNRj-Foxn1)
Conditions: i.v. 250 nmol/kg, 50 MBq/kg
Experimental: SK-RC-52.hFAP were grown to 80% confluence in RPMI-1640 with 10% fetal bovine serum (FBS) and 1% antibiotic-antimycotic and detached with Trypsin-EDTA (ethylenediaminetetraacetic acid) 0.05%. Tumor cells were resuspended in Hanks' Balanced Salt Solution medium. Aliquots of 5 million cells (100 μL of suspension) were injected subcutaneously in the right flank of female athymic Balb/c AnNRj-Foxn1 mice (6 to 8 wk of age).
Radiolabeling of ESV6-DOTAGA, Bi-ESV6-DOTAGA, Tri-ESV6-DOTAGA, Tetra-ESV6-DOTAGA, Hexa-ESV6-DOTAGA, Octa-ESV6-DOTAGA and FAP-2286 with lutetium-177 (a therapeutic radionuclide) was performed with different specific activities for three different studies (biodistribution, therapy and dose optimization).
Prior to the biodistribution study, precursors (100 nmol) were dissolved in 100 μL of milliQ water and diluted with 200 μL of sodium acetate (1 M in water, pH=4.5). 20 MBq of ^177Lu solution were added and the mixture was heated at 90 °C for 10 minutes, followed by dilution with […] of PBS to achieve final volume of 2 mL (20 doses of 100 μL each).
ESV6-DOTAGA, Bi-ESV6-DOTAGA, Tri-ESV6-DOTAGA, Tetra-ESV6-DOTAGA, Hexa-ESV6-DOTAGA, Octa-ESV6-DOTAGA and FAP-2286 were radiolabeled with ^177Lu as described above. Tumors were allowed to grow to an average volume of 300 mm^3. Mice were randomized and injected intravenously with radiolabeled preparations of ^177Lu-ESV6, ^177Lu-Bi-ESV6, ^177Lu-Tri-ESV6, Tetra-ESV6-DOTAGA, Hexa-ESV6-DOTAGA, Octa-ESV6-DOTAGA or ^177Lu-FAP-2286 (250 nmol/kg; 50 MBq/kg). Mice were euthanized at different time-points after the intravenous injection by CO2 asphyxiation. Tumors, organs, and blood were collected, weighted, and radioactivity was measured with a Packard Cobra Gamma Counter. Values are expressed as percent ID/g±SD [FIG. 4]. The % ID/g in the tumors was corrected considering the SK-RC-52.hFAP tumor growth rate.
Quantitative in vivo biodistribution of ^177Lu-ESV6-DOTAGA, ^177Lu-Bi-ESV6-DOTAGA, ^177Lu-Tri-ESV6-DOTAGA, ^177Lu-FAP-2286, Tetra-ESV6-DOTAGA, Hexa-ESV6-DOTAGA and Octa-ESV6-DOTAGA at different time points after intravenous administration (250 nmol/kg, 50 MBq/kg) in mice bearing SK-RC-52.hFAP tumors, are shown in Tables 1 to 4 and 10 to 12. Data are reported as % ID/g±standard deviation.
Tumor-to-organ ratios of ^177Lu-ESV6-DOTAGA, ^177Lu-Bi-ESV6-DOTAGA, ^177Lu-Tri-ESV6-DOTAGA, ^177Lu-FAP-2286, Tetra-ESV6-DOTAGA, Hexa-ESV6-DOTAGA and Octa-ESV6-DOTAGA, at different time points after intravenous administration (250 nmol/kg, 50 MBq/kg) in mice bearing SK-RC-52.hFAP tumors, are shown in Tables 5 to 8 and 13 to 15. Avg.=average; Std.d=standard deviation.

## N#C[C@@H]1CC(F)(F)CN1C(=O)CNC(=O)c1ccnc2c(NC(=O)CCC(=O)NCCNC(=O)CCOCC(COCCC(=O)NCCNC(=O)CCC(=O)Nc3cccc4c(C(=O)NCC(=O)N5CC(F)(F)C[C@H]5C#N)ccnc34)NC(=O)CCOCC(COCCC(=O)NC(COCCC(=O)NCCNC(=O)CCC(=O)Nc3cccc4c(C(=O)NCC(=O)N5CC(F)(F)C[C@H]5C#N)ccnc34)COCCC(=O)NCCNC(=O)CCC(=O)Nc3cccc4c(C(=O)NCC(=O)N5CC(F)(F)C[C@H]5C#N)ccnc34)NC(=O)CCC(C(=O)O)N3CCN(CC(=O)[O-])CCN(CC(=O)[O-])CCN(CC(=O)[O-])CC3)cccc12.[177Lu+3] (stereo partly drawn) [^177Lu-Tetra-ESV6-DOTAGA]
6 h
  Tumor to organs ratio, Blood: 53.01
  Tumor to organs ratio, Heart: 114.60
  Tumor to organs ratio, Intestine: 86.50
  Tumor to organs ratio, Kidney: 27.69
  Tumor to organs ratio, Liver: 15.19
  Tumor to organs ratio, Lung: 52.76
  Tumor to organs ratio, Muscle: 61.99
  Tumor to organs ratio, Spleen: 44.00
  Tumor to organs ratio, Tail: 24.06
6 h post injection
  Injected dose per gram, Blood: 1.16 % ID/g
  Injected dose per gram, Heart: 0.50 % ID/g
  Injected dose per gram, Intestine: 0.70 % ID/g
  Injected dose per gram, Kidney: 2.10 % ID/g
  Injected dose per gram, Liver: 3.81 % ID/g
  Injected dose per gram, Lung: 1.09 % ID/g
  Injected dose per gram, Muscle: 0.94 % ID/g
  Injected dose per gram, Spleen: 1.33 % ID/g
  Injected dose per gram, Tail: 1.85 % ID/g
  Injected dose per gram, Tumor: 57.25 % ID/g
24 h
  Tumor to organs ratio, Blood: 146.80
  Tumor to organs ratio, Heart: 166.10
  Tumor to organs ratio, Intestine: 284.15
  Tumor to organs ratio, Kidney: 23.62
  Tumor to organs ratio, Liver: 9.42
  Tumor to organs ratio, Lung: 138.32
  Tumor to organs ratio, Muscle: 98.07
  Tumor to organs ratio, Spleen: 20.72
  Tumor to organs ratio, Tail: 36.71
24 h post injection
  Injected dose per gram, Blood: 0.29 % ID/g
  Injected dose per gram, Heart: 0.26 % ID/g
  Injected dose per gram, Intestine: 0.15 % ID/g
  Injected dose per gram, Kidney: 1.79 % ID/g
  Injected dose per gram, Liver: 4.52 % ID/g
  Injected dose per gram, Lung: 0.35 % ID/g
  Injected dose per gram, Muscle: 0.44 % ID/g
  Injected dose per gram, Spleen: 2.19 % ID/g
  Injected dose per gram, Tail: 1.16 % ID/g
  Injected dose per gram, Tumor: 42.15 % ID/g
96 h
  Tumor to organs ratio, Blood: 1062.04
  Tumor to organs ratio, Heart: 133.14
  Tumor to organs ratio, Intestine: 213.10
  Tumor to organs ratio, Kidney: 2.36
  Tumor to organs ratio, Liver: 2.07
  Tumor to organs ratio, Lung: 69.86
  Tumor to organs ratio, Muscle: 288.08
  Tumor to organs ratio, Spleen: 3.88
  Tumor to organs ratio, Tail: 24.96
96 h post injection
  Injected dose per gram, Blood: 0.01 % ID/g
  Injected dose per gram, Heart: 0.12 % ID/g
  Injected dose per gram, Intestine: 0.07 % ID/g
  Injected dose per gram, Kidney: 5.77 % ID/g
  Injected dose per gram, Liver: 6.64 % ID/g
  Injected dose per gram, Lung: 0.24 % ID/g
  Injected dose per gram, Muscle: 0.06 % ID/g
  Injected dose per gram, Spleen: 3.64 % ID/g
  Injected dose per gram, Tail: 0.54 % ID/g
  Injected dose per gram, Tumor: 13.36 % ID/g
